In one experiment the target is human AKT2 (Homo sapiens (Human), UniProt P31751). Nature of the experiment: AKT2 kinase activity inhibition (TR-FRET, biotinylated Crosstide substrate). As to conditions: preincubation 120 min at 25° C.; ATP 150 μM; Crosstide 500 nM. In kind it is biochemical. The protocol:
(§1) Preparation of AKT1 and AKT2 and measurement of in vitro inhibitory activity of the above-mentioned compounds against AKT1 and AKT2 kinase activity were carried out with reference to the method disclosed in Biochem. J. Vol. 385, pp 399-408 (2005). In the preparation of AKT1 and AKT2, human AKT1 and AKT2 to which a middle T antigen tag was added were expressed in Sf 9 insect cells, and then AKT1 and AKT2 were prepared following affinity purification and activation by PDK1. The prepared AKT1 and AKT2 were stored at −80° C. until the time of measurement of inhibitory activity of the compounds. In the measurement of inhibitory activity of the compounds, AKT1 or AKT2 and each compound of the present invention were preincubated at 25° C. for 120 minutes in a buffer solution for reaction (15 mM Tris-HCl pH 7.5, 0.01% Tween-20, 2 mM DTT). As a substrate, biotinylated Crosstide (bioton-KGSGSGRPRTSSFAEG), MgCl2, and ATP were added to final concentrations of 500 nM, 10 mM, and 150 μM, respectively, and reactions were carried out at 25° C. for 60 minutes. The reactions were stopped by adding EDTA to a final concentration of 80 mM. Then, a detection liquid in which an Eu-labeled anti-phosphorylation Crosstide antibody (PerkinElmer) and SureLight APC-SA (PerkinElmer) were contained at a final concentration of 0.5 nM and […], respectively, was added, and reactions were carried out at room temperature for 2 hours. Finally, the amount of fluorescence at the time of irradiation of excitation light having a wavelength of 337 nm was measured at dual wavelengths of 620 nm and 665 nm by PHERAstar FS (BMG LABTECH). The amount of phosphorylation was determined from the ratio of the fluorescence amounts at the dual wavelengths. The compound concentration at which phosphorylation can be inhibited by 50% was defined as […] (nM), and the results are shown in Table 4 below.

Experiment [1] concerns AKT Ser473 phosphorylation. Nature of the experiment: Phosphorylated AKT (Ser473) inhibitory activity in cultured cell A2780 (Meso Scale Discovery assay). In kind it is cell-based. The conditions noted are these: A2780 cells, 3 hours treatment; average±standard deviation of three independent runs. On the procedure:
(§2) To evaluate the inhibitory activity of the above compounds against AKT activity, AKT Ser 473 phosphorylation and phosphorylation of S6 ribosomal protein (S6RP) (a downstream factor of Akt signal) at Ser240/Ser244, which serve as indices for the activation status of AKT, were measured in extracts of cultured cells which had been treated with the above compounds. For the measurement, assays (manufactured by Meso Scale Discovery) utilizing electrochemiluminescence based on the ELISA principle were used for both AKT Ser473 and S6RP Ser240/Ser244.
(§3) In 10% FBS-containing RPMI1640 medium (Invitrogen), ovarian cancer-derived A2780 cells in the logarithmic growth phase were seeded at 4.5×10^4 cells/150 μL/well into polylysine coated 96-well flat-bottom plates, and cultured for one day in an incubator at 5% CO2, 37° C., and 100% humidity.
(§4) Each compound of the present invention was supplied as a stock solution prepared at a concentration of 10 mM in DMSO. Using this solution, a dilution series was prepared in DMSO solvent at 200-fold of the final concentrations (10, 3, 1, 0.3, 0.1, 0.03, 0.01, 0.003 μM). The day after the cells were seeded, the compound dilution series at a 200-fold concentration was diluted 50-fold in medium for cell culture. To each well of the aforementioned A2780 cell culture plates, 50 μL of the diluted compound dilution series was added. The plates were then placed back in the incubator, and the culture was continued for 3 hours at 5% CO2, 37° C., and 100% humidity.
(§5) Meso Scale Discovery's 96-Well Multi-Spot Phospho-AKT (Ser473) Assay (K151CAA-3) and Phospho (Ser240/244)/Total S6RP Assay (K11139D-2) were used. In advance, a necessary amount of the supplied cell extract buffer was dispensed, and protease inhibitor cocktail and protein phosphatase inhibitor cocktail were added thereto, and kept cold on ice. The culture plates of the cells cultured with the compounds for 3 hours were taken out and the medium was removed. 100 μL of the cell extract buffer kept cold was added per well, followed by extraction by shaking at 300 r.p.m. for 1 hour using a plate shaker while maintaining a temperature of 4° C. Using the obtained extracts at 40 μL/well for the Phospho-AKT (Ser473) Assay and at 15 μL/well for the Phospho(Ser240/244)/Total S6RP Assay, reactions were conducted at 4° C. overnight with shaking at 300 r.p.m. according to the document attached to the kits. The next day, after the wells were washed three times with the supplied wash buffer, 50 μL/well of SULFO-TAG™ sandwich antibody solution was added, and reactions were carried out at room temperature for 1 hour. The wells were washed with the wash buffer three times, and 150 μL of the supplied Read Buffer T was added to each well. The amounts of phosphorylation of AKT and S6RP were measured by a SECTOR Imager 6000 plate reader (manufactured by Meso Scale Discovery) within 30 minutes of the Read Buffer T addition.
(§6) The extraction buffer-only background was subtracted from all of the measurement values, and AKT and S6RP phosphorylation signals in the control cell extract treated with only DMSO were defined as 100%. The compound concentrations and the levels of phosphorylated AKT and S6PR (expressed as a percentage relative to the control) in each concentration were plotted, and IC50 concentration (nM) that achieves 50% inhibition of the control was determined.

The next experiment addresses human AKT1 (Homo sapiens (Human), UniProt P31749). Nature of the experiment: AKT1 kinase activity inhibition (TR-FRET, biotinylated Crosstide substrate). The format is biochemical. The conditions noted are these: preincubation 120 min at 25° C.; ATP 150 μM; Crosstide 500 nM. The protocol:
as §1

Experiment [2] relates to S6 ribosomal protein (S6RP) Ser240/Ser244 phosphorylation. Nature of the experiment: Phosphorylated S6RP (Ser240/Ser244) inhibitory activity in cultured cell A2780 (Meso Scale Discovery assay). In kind it is cell-based. As to conditions: A2780 cells, 3 hours treatment; average±standard deviation of three independent runs. The protocol:
as §2, §3, §4, §5, §6

Results on 15 molecules are retold here after patent publication US8772283B2, “Imidazo-oxazine compound or salt thereof” (Taiho Pharmaceutical Co., Ltd., priority 2011, dated 2014).

A word on the IC50: it is the concentration at which inhibition is half-maximal. High values mean lower potency, low ones higher potency.

Sequence of human AKT2 (P31751 whole entry): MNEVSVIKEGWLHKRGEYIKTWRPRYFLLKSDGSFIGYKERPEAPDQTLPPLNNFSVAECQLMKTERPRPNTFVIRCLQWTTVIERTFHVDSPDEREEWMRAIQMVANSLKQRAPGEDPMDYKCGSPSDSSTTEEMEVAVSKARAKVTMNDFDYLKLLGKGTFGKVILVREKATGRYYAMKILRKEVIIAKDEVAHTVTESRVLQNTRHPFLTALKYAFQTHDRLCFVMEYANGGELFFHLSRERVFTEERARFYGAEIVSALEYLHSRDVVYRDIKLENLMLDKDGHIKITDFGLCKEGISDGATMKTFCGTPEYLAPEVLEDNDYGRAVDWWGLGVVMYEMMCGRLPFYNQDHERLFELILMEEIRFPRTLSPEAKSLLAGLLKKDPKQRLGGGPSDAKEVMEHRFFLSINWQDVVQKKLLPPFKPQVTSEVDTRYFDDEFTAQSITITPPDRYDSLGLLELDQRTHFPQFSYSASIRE
Sequence of human AKT1 (P31749 whole entry): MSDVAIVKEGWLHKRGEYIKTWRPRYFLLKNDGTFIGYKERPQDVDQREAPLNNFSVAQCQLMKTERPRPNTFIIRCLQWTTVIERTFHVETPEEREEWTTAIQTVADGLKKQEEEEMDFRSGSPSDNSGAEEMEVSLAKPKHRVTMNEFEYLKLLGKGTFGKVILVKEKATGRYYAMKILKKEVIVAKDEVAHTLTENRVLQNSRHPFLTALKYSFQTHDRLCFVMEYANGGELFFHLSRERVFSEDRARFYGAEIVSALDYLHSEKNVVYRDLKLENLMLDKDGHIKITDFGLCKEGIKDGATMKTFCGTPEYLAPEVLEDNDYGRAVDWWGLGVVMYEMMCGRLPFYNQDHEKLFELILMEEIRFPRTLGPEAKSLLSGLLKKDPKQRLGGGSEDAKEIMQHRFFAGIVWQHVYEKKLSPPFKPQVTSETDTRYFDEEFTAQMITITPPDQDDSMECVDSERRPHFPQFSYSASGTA

On to `C[C@]1(O)C[C@@](N)(c2ccc(-c3nc4n(c3-c3ccccc3)COc3ccc(CO)cc3-4)cc2)C1` [Example 44, trans-3-amino-3-(4-(9-(hydroxymethyl)-3-phenyl-5H-benzo[e]imidazo[1,2-c][1,3]oxazin-2-yl)phenyl)-1-methylcyclobutanol], for which the IC50 at human AKT2 was 0.00055 µM; in experiment [1] it was 0.033 ± 0.007 µM; against human AKT1, 0.0022 µM; in experiment [2] it was 0.046 ± 0.017 µM.
In the same order, the values of `CC1(O)CC(N)(c2ccc(-c3nc4n(c3-c3ccccc3)COc3ccncc3-4)cc2)C1` (stereo not drawn) [Example 32, trans-3-amino-1-methyl-3-(4-(3-phenyl-5H-imidazo[1,2-c]pyrido[3,4-e][1,3]oxazin-2-yl)phenyl)cyclobutanol] are 0.0011 µM, 0.04 ± 0.003 µM, 0.0066 µM and 0.062 ± 0.023 µM.
Consider `CNC(=O)c1ccc2c(c1)OCn1c-2nc(-c2ccc([C@]3(N)C[C@](C)(O)C3)cc2)c1-c1ccccc1` [Example 56, 2-(4-(trans-1-amino-3-hydroxy-3-methylcyclobutyl)phenyl)-N-methyl-3-phenyl-5H-benzo[e]imidazo[1,2-c][1,3]oxazine-8-carboxamide], for which the half-maximal inhibitory concentration (IC50) against human AKT2 was 0.00049 µM; in experiment [1] it was 0.025 ± 0.003 µM; on human AKT1 it was 0.0018 µM; in experiment [2] it was 0.038 ± 0.012 µM.
In the same order, the values of `N[C@]1(c2ccc(-c3nc4n(c3-c3ccccc3)COc3cccc(F)c3-4)cc2)C[C@](O)(C2CC2)C1` [Example 1, trans-3-amino-1-cyclopropyl-3-(4-(10-fluoro-3-phenyl-5H-benzo[e]imidazo[1,2-c][1,3]oxazin-2-yl)phenyl)cyclobutanol] are 0.00029 µM, 0.024 ± 0.001 µM, 0.0037 µM and 0.04 ± 0.013 µM.
In the same order, the values of `COc1ccc2c(c1)OCn1c-2nc(-c2ccc([C@]3(N)C[C@@](O)(C4CC4)C3)cc2)c1-c1ccccc1` [Example 18, trans-3-amino-1-cyclopropyl-3-(4-(8-methoxy-3-phenyl-5H-benzo[e]imidazo[1,2-c][1,3]oxazin-2-yl)phenyl)cyclobutanol] are 0.0006 µM, 0.052 ± 0.006 µM, 0.0037 µM and 0.058 ± 0.01 µM.
In the same order, the values of `COc1cccc2c1-c1nc(-c3ccc([C@]4(N)C[C@@](O)(C5CC5)C4)cc3)c(-c3ccccc3)n1CO2` [Example 16, trans-3-amino-1-cyclopropyl-3-(4-(10-methoxy-3-phenyl-5H-benzo[e]imidazo[1,2-c][1,3]oxazin-2-yl)phenyl)cyclobutanol] are 0.00035 µM, 0.031 ± 0.005 µM, 0.0048 µM and 0.038 ± 0.007 µM.
Take `CC[C@]1(O)C[C@@](N)(c2ccc(-c3nc4n(c3-c3ccccc3)COc3cccnc3-4)cc2)C1` [Example 30, trans-3-amino-1-ethyl-3-(4-(3-phenyl-5H-imidazo[1,2-c]pyrido[2,3-e][1,3]oxazin-2-yl)phenyl)cyclobutanol]: the IC50 on human AKT2 is 0.0046 µM; in experiment [1], 0.104 ± 0.027 µM; on human AKT1, 0.033 µM; in experiment [2], 0.174 ± 0.047 µM.
In the case of `N[C@]1(c2ccc(-c3nc4n(c3-c3ccccc3)COc3ccccc3-4)cc2)C[C@](O)(C2CC2)C1` [Example 11, trans-3-amino-1-cyclopropyl-3-(4-(3-phenyl-5H-benzo[e]imidazo[1,2-c][1,3]oxazin-2-yl)phenyl)cyclobutanol], the IC50 on human AKT2 came to 0.001 µM; in experiment [1], 0.063 ± 0.015 µM; on human AKT1, 0.0039 µM; in experiment [2], 0.083 ± 0.027 µM.
Take `C[C@]1(O)C[C@@](N)(c2ccc(-c3nc4n(c3-c3ccccc3)COc3ccc(C#N)cc3-4)cc2)C1` [Example 46, 2-(4-(trans-1-amino-3-hydroxy-3-methylcyclobutyl)phenyl)-3-phenyl-5H-benzo[e]imidazo[1,2-c][1,3]oxazine-9-carbonitrile]: the IC50 turned out to be 0.00097 µM against human AKT2, 0.032 ± 0.005 µM in experiment [1], 0.0044 µM at human AKT1 and 0.053 ± 0.006 µM in experiment [2].
Taken in the same sequence, the figures for `N[C@]1(c2ccc(-c3nc4n(c3-c3ccncc3)COc3cccc(F)c3-4)cc2)C[C@](O)(C2CC2)C1` [Example 5, trans-3-amino-1-cyclopropyl-3-(4-(10-fluoro-3-(pyridin-4-yl)-5H-benzo[e]imidazo[1,2-c][1,3]oxazin-2-yl)phenyl)cyclobutanol] were 0.00091 µM, 0.085 ± 0.024 µM, 0.022 µM and 0.232 ± 0.053 µM.
Take `C[C@]1(O)C[C@@](N)(c2ccc(-c3nc4n(c3-c3ccccc3)COc3ccc(-c5ccn[nH]5)cc3-4)cc2)C1` [Example 48, trans-3-amino-1-methyl-3-(4-(3-phenyl-9-(1H-pyrazol-5-yl)-5H-benzo[e]imidazo[1,2-c][1,3]oxazin-2-yl)phenyl)cyclobutanol]: the IC50 at human AKT2 came to 0.00032 µM; in experiment [1] it was 0.048 ± 0.005 µM; on human AKT1, 0.0008 µM; in experiment [2], 0.086 ± 0.027 µM.
Turning to `NC1(c2ccc(-c3nc4n(c3-c3ccccc3)COc3cccc(Cl)c3-4)cc2)CC(O)(C2CC2)C1` (stereo not drawn) [Example 22, trans-3-amino-3-(4-(10-chloro-3-phenyl-5H-benzo[e]imidazo[1,2-c][1,3]oxazin-2-yl)phenyl)-1-cyclopropylcyclobutanol], the IC50 against human AKT2 came to 0.0003 µM; against human AKT1 it was 0.0082 µM.
`CC1(O)CC(N)(c2ccc(-c3nc4n(c3-c3ccccc3)COc3cc(C#N)ccc3-4)cc2)C1` (stereo not drawn) [Example 47, 2-(4-(trans-1-amino-3-hydroxy-3-methylcyclobutyl)phenyl)-3-phenyl-5H-benzo[e]imidazo[1,2-c][1,3]oxazine-8-carbonitrile]: the IC50 was 0.0012 µM at human AKT2 and 0.0062 µM on human AKT1.
In the same order, the values of `NC1(c2ccc(-c3nc4n(c3-c3ccccc3)COc3ccccc3-4)cc2)CCC1` [Example 13, 1-(4-(3-phenyl-5H-benzo[e]imidazo[1,2-c][1,3]oxazin-2-yl)phenyl)cyclobutanamine] are 0.0028 µM and 0.013 µM.
On to `CC1(O)CC(N)(c2ccc(-c3nc4n(c3-c3ccncc3)COc3cccc(F)c3-4)cc2)C1` (stereo not drawn) [Example 7, trans-3-amino-3-(4-(10-fluoro-3-(pyridin-4-yl)-5H-benzo[e]imidazo[1,2-c][1,3]oxazin-2-yl)phenyl)-1-methylcyclobutanol], for which the IC50 came out at 0.0011 µM against human AKT2 and 0.025 µM against human AKT1.
